In ChEMBL document CHEMBL1201862, “PubChem BioAssay data set” (2004):
Where a name gives a salt, the structure may show the parent alone.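 In this assay, cells in 96-well plates receive the compound at five concentrations for 48 hours. Endpoints are linearly interpolated between the surrounding concentrations. GI50: concentration for 50% inhibition of growth.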 Active and inactive are the calls of the source. No stated cut-off is given here; in the data, active = GI50 up to about 1.1 µM and inactive = higher.

Tests used:
Assay in all cases: NCI tumour cell line growth inhibition, 48 h
786-0 = tested on: 786-0
CAKI-1 = tested on: CAKI-1
COLO 205 = tested on: COLO 205
HCC 2998 = tested on: HCC 2998
HCT-15 = tested on: HCT-15
HL-60 = tested on: HL-60
HOP-62 = tested on: HOP-62
HOP-92 = tested on: HOP-92
MOLT-4 = tested on: MOLT-4
Malme-3M = tested on: Malme-3M
NCI-H23 = tested on: NCI-H23
OVCAR-3 = tested on: OVCAR-3
OVCAR-5 = tested on: OVCAR-5
RPMI-8226 = tested on: RPMI-8226
SF-539 = tested on: SF-539
SNB-19 = tested on: SNB-19
SR = tested on: SR
U-251 = tested on: U-251
UACC-257 = tested on: UACC-257
UACC-62 = tested on: UACC-62

Structure (SMILES)	GI50 (786-0)	GI50 (CAKI-1)	GI50 (COLO 205)	GI50 (HCC 2998)	GI50 (HCT-15) [µM]	GI50 (HL-60)	GI50 (HOP-62)	GI50 (HOP-92)	GI50 (MOLT-4)	GI50 (Malme-3M)	GI50 (NCI-H23)	GI50 (OVCAR-3)	GI50 (OVCAR-5)	GI50 (RPMI-8226)	GI50 (SF-539)	GI50 (SNB-19)	GI50 (SR)	GI50 (U-251)	GI50 (UACC-257)	GI50 (UACC-62)
O=C1OC(c2ccccc2)=N/C1=C\c1cn[nH]n1	> 100 µM (inactive)	> 100 µM (inactive)	> 100 µM (inactive)	> 100 µM (inactive)	> 100	> 100 µM (inactive)	> 100 µM (inactive)	> 100 µM (inactive)	> 100 µM (inactive)	83.4 µM (inactive)	> 100 µM (inactive)	> 100 µM (inactive)	> 100 µM (inactive)	> 100 µM (inactive)	70.1 µM (inactive)	> 100 µM (inactive)	59.6 µM (inactive)	> 100 µM (inactive)	> 100 µM (inactive)	> 100 µM (inactive)
N#C/C(=C/NC(=S)NCc1ccccc1)C(N)=O	> 100 µM (inactive)	> 100 µM (inactive)	> 100 µM (inactive)	> 100 µM (inactive)	> 100	> 100 µM (inactive)	> 100 µM (inactive)	> 100 µM (inactive)	> 100 µM (inactive)	> 100 µM (inactive)	> 100 µM (inactive)	0.063 µM (active)	> 100 µM (inactive)	> 100 µM (inactive)	> 100 µM (inactive)	> 100 µM (inactive)	> 100 µM (inactive)	> 100 µM (inactive)	> 100 µM (inactive)	> 100 µM (inactive)
COc1cc(/C=C2\CCC(C)C3=C(c4cc(OC)c(OC)c(OC)c4)C(C#N)=C(N)OC32)cc(OC)c1OC (stereo not given)	1.95 µM (inactive)	4.73 µM (inactive)	2.11 µM (inactive)	4.16 µM (inactive)	2.08	1.67 µM (inactive)	7.45 µM (inactive)	3.17 µM (inactive)	1.84 µM (inactive)	2.59 µM (inactive)	3.72 µM (inactive)	4.1 µM (inactive)	6.56 µM (inactive)	1.63 µM (inactive)	2.26 µM (inactive)	11.6 µM (inactive)	1.49 µM (inactive)	3.08 µM (inactive)	4.32 µM (inactive)	2.45 µM (inactive)
COC(=O)[C@]1(C)CCCC2(C)C1CC[C@H]1C=C(C)[C@H]3CCC12C3 (stereo not given in full)	> 100 µM (inactive)	> 100 µM (inactive)	> 100 µM (inactive)	> 100 µM (inactive)	> 100	86.1 µM (inactive)	> 100 µM (inactive)	> 100 µM (inactive)	> 100 µM (inactive)	> 100 µM (inactive)	> 100 µM (inactive)	> 100 µM (inactive)	> 100 µM (inactive)	> 100 µM (inactive)	> 100 µM (inactive)	> 100 µM (inactive)	> 100 µM (inactive)	> 100 µM (inactive)	37.5 µM (inactive)	> 100 µM (inactive)
CCOC(=O)C1S/C(=N\c2ccc(C)c(C)c2)N=C1C (stereo not given)	> 100 µM (inactive)	> 100 µM (inactive)	> 100 µM (inactive)	> 100 µM (inactive)	> 100	61 µM (inactive)	> 100 µM (inactive)	> 100 µM (inactive)	> 100 µM (inactive)	> 100 µM (inactive)	> 100 µM (inactive)	> 100 µM (inactive)	> 100 µM (inactive)	85.7 µM (inactive)	> 100 µM (inactive)	> 100 µM (inactive)	> 100 µM (inactive)	> 100 µM (inactive)	> 100 µM (inactive)	> 100 µM (inactive)
CCOC(=O)c1c(N2CCOCC2)[nH]c(=O)c(C(c2c(Cl)cccc2Cl)c2c(O)c(C(=O)OCC)c(N3CCOCC3)[nH]c2=O)c1O	2.67 µM (inactive)	2.31 µM (inactive)	4.34 µM (inactive)	19.4 µM (inactive)	4.63	1.96 µM (inactive)	16.1 µM (inactive)	2.09 µM (inactive)	2.07 µM (inactive)	2.49 µM (inactive)	7.19 µM (inactive)	3.48 µM (inactive)	14.4 µM (inactive)	2.18 µM (inactive)	5.11 µM (inactive)	7.45 µM (inactive)	3.97 µM (inactive)	4.8 µM (inactive)	5.58 µM (inactive)	6.9 µM (inactive)
O=C1c2c(O)cccc2-c2nn(CCNCCO)c3ccc(NCCNCCO)c1c23 [LOSOXANTRONE HYDROCHLORIDE]	< 0.0185 µM (active)	0.0552 µM (active)	0.158 µM (active)	0.137 µM (active)	2.36	< 0.01 µM (active)	< 0.0169 µM (active)	0.0285 µM (active)	< 0.01 µM (active)	0.123 µM (active)	0.0338 µM (active)	0.598 µM (active)	0.29 µM (active)	0.432 µM (active)	0.0288 µM (active)	< 0.0167 µM (active)	< 0.01 µM (active)	0.0122 µM (active)	1.6 µM (inactive)	< 0.0451 µM (active)
COc1ccc2c(c1)C(OC)C1c3c(cc4c(c3-2)OCO4)CCN1C (stereo not given)	3.64 µM (inactive)	2.12 µM (inactive)	2.79 µM (inactive)	3.4 µM (inactive)	2.13	1.24 µM (inactive)	2.43 µM (inactive)	0.925 µM (active)	1.95 µM (inactive)	2 µM (inactive)	2.8 µM (inactive)	5.81 µM (inactive)	3.13 µM (inactive)	3.46 µM (inactive)	2.54 µM (inactive)	3.12 µM (inactive)	2.4 µM (inactive)	3.67 µM (inactive)	3.38 µM (inactive)	2.11 µM (inactive)
COC(=O)C1=C(C(=O)OC)SC(=C(/N=N/c2ccccc2)c2ccccc2)S1	50.8 µM (inactive)	> 100 µM (inactive)	> 100 µM (inactive)	> 100 µM (inactive)	> 100	> 100 µM (inactive)	> 100 µM (inactive)	> 100 µM (inactive)	> 100 µM (inactive)	> 100 µM (inactive)	> 100 µM (inactive)	61.2 µM (inactive)	> 100 µM (inactive)	> 100 µM (inactive)	> 100 µM (inactive)	> 100 µM (inactive)	> 100 µM (inactive)	> 100 µM (inactive)	> 100 µM (inactive)	> 100 µM (inactive)
CCOC(=O)Nc1ccc(S(=O)(=O)OC)cc1.CCOC(=O)Nc1ccc(S(=O)(=O)OC)cc1.NC(=O)NCCO	19.9 µM (inactive)	48.6 µM (inactive)	30.9 µM (inactive)	> 50 µM (inactive)	21.6	16.7 µM (inactive)	23.6 µM (inactive)	> 50 µM (inactive)	> 50 µM (inactive)	> 50 µM (inactive)	> 50 µM (inactive)	> 50 µM (inactive)	> 50 µM (inactive)	17.1 µM (inactive)	21.2 µM (inactive)	> 50 µM (inactive)	> 50 µM (inactive)	23 µM (inactive)	29.6 µM (inactive)	> 50 µM (inactive)
Nc1cc2c(c3ccccc13)C(CCl)CN2C(=O)c1cc2cc(NC(=O)c3cc4ccccc4o3)ccc2[nH]1 (stereo not given)	0.00121 µM (active)	0.000301 µM (active)	0.0056 µM (active)	0.00307 µM (active)	0.00382	0.000264 µM (active)	0.000891 µM (active)	0.0357 µM (active)	0.00046 µM (active)	0.00213 µM (active)	0.000551 µM (active)	0.00885 µM (active)	0.00753 µM (active)	0.228 µM (active)	0.11 µM (active)	0.0124 µM (active)	0.47 µM (active)	0.00281 µM (active)	0.00627 µM (active)	0.00304 µM (active)
CCOC(=O)/C(C#N)=C(N)/C(=N\Nc1cccc(C(F)(F)F)c1)C(=O)OCC	> 100 µM (inactive)	> 100 µM (inactive)	> 100 µM (inactive)	> 100 µM (inactive)	> 100	75.9 µM (inactive)	> 100 µM (inactive)	> 100 µM (inactive)	> 100 µM (inactive)	> 100 µM (inactive)	> 100 µM (inactive)	> 100 µM (inactive)	> 100 µM (inactive)	> 100 µM (inactive)	> 100 µM (inactive)	> 100 µM (inactive)	> 100 µM (inactive)	> 100 µM (inactive)	> 100 µM (inactive)	> 100 µM (inactive)
C=C(Cl)C(Cl)(CBr)CCC(Cl)C(C)C (stereo not given)	0.337 µM (active)	1.77 µM (inactive)	4.79 µM (inactive)	4.22 µM (inactive)	5.46	0.226 µM (active)	1.25 µM (inactive)	1.6 µM (inactive)	> 39.9 µM (inactive)	8.28 µM (inactive)	13.7 µM (inactive)	1.32 µM (inactive)	10.8 µM (inactive)	0.138 µM (active)	1.3 µM (inactive)	4.04 µM (inactive)	> 36.6 µM (inactive)	0.647 µM (active)	1.37 µM (inactive)	3.08 µM (inactive)
COC(=O)C1CC2(c3ccccc3)C(=O)c3ccccc3N2O1 (stereo not given)	35.4 µM (inactive)	36.5 µM (inactive)	98.4 µM (inactive)	> 100 µM (inactive)	43.1	28.9 µM (inactive)	71.3 µM (inactive)	49.5 µM (inactive)	22.1 µM (inactive)	> 100 µM (inactive)	> 100 µM (inactive)	70.6 µM (inactive)	> 100 µM (inactive)	17.7 µM (inactive)	67 µM (inactive)	> 100 µM (inactive)	18.9 µM (inactive)	69.2 µM (inactive)	> 100 µM (inactive)	34 µM (inactive)
